Measurements: US20240180800A1, “Oral Care Compositions Containing Stannous Ion Source” (Colgate-Palmolive Company, priority 2022, published 2024)

What was measured:
Type in all cases: physicochemical
[1] = FTIR of SnF2-TSPP solution with antioxidant upon aging at 60° C.
Experimental: (§1) The effect of antioxidants on the stannous stability in the presence of tetrasodium pyrophosphate (TSPP) was examined. Samples of Sn(II) were prepared by dissolving TSPP and SnF2 in water with the final concentration of SnF2 equal to 2 wt. %. Antioxidant (butylated hydroxytoluene (BHT), butylated hydroxyanisole (BHA), or sodium ascorbyl phosphate (SAP)) was added to the samples with the molar ratio of SnF2:TSPP:antioxidant equal to 1:1:0.3. The pH of the solutions was adjusted with NaOH to pH 7. The solutions were not fully clear due to the high concentration of SnF2 and limited solubility of certain antioxidants. Some amount of the precipitate/undissolved material was evident in the vials.
Fourier transform infrared spectroscopy (FTIR): Infrared spectra were collected using a Bruker Vertex 70 FTIR spectrometer (Bruker Optics, Billerica, MA) equipped with a GladiATR diamond ATR accessory (Pike technologies, Madison, WI). The spectral range was […] and a resolution of 4 cm^−1 was used. All measurements were carried out at room temperature. The absorption spectrum of solution containing SnF2 and TSPP (herein after referred to as SnF2-TSPP) in the 850-1240 cm^−1 region at different time points: fresh, 1 week and 2 weeks aged at 60° C. was examined. […] The transformation of the complex was manifested in the peak shifts and intensity changes of phosphate bands. […]

[2] = Iodine titration of Sn(II) in SnF2-TSPP solution with antioxidant upon aging at 60° C.; conditions: for Sn(II) %: after 2 weeks of aging at 60° C.
Experimental: as §1
Iodine titration: The stability of Sn (II) was further examined by iodine titration assay. Titration measurements were performed through indirect titration. 2 M citric acid solution was added to the samples in excess and 0.1 N Iodine was added until the solutions turned light brown. The samples were covered with parafilm and aluminum foil and left mixing in the dark for 2 hours. Then, titration with 0.1 N sodium thiosulfate standard was performed using a 25 mL Titrette Bottletop Burette (BrandTech Scientific, Inc., Essex, CT, USA) until the solutions turned clear. Sn(II) concentration was calculated based on the amount of sodium thiosulfate and iodine used in the reaction. The amount of Sn(II) present in the SnF2-TSPP solution at different time points: fresh, 1 week and 2 weeks aged at 60° C. with and without the antioxidant (SAP, BHA, or BHT) was measured. The result is in good agreement with the FTIR result discussed above. The amount of Sn(II) was highest in the sample with SAP after 2 weeks of 60° C. aging.
(§2) In order to identify the optimal concentration of antioxidants (SAP and sodium ascorbate) that can increase stannous stability in aqueous solutions, samples of Sn(II) with TSPP and various concentrations of SAP or sodium ascorbate were tested for the stability of Sn(II). Samples of Sn(II) were prepared by dissolving TSPP and SnF2 in water with the final concentration of SnF2 equal to 2 wt %. Antioxidant (SAP or sodium ascorbate) was added to the samples with the molar ratio of SnF2:TSPP:antioxidant equal to 1:1:x, where x was between 0.05 and 0.3. The pH of the solutions was adjusted with NaOH to pH=7.
Iodine titration: The stability of Sn (II) was further examined by iodine titration assay. Titration measurements were performed as described in Example 1.

[3] = 119Sn NMR relative amount of Sn(II) in SnF2-TSPP solution with antioxidant upon aging at 60° C.; conditions: for Sn(II) left relative to fresh sample: SnF2:TSPP:antioxidant 1:1:0.3, pH 7, after 2 weeks of aging at 60° C.; for Sn(II) content relative to fresh sample: pH 7, after 2 weeks of aging at 60° C.
Experimental: as §1
Nuclear Magnetic Resonance (NMR): The stability of Sn (II) was further examined by Nuclear Magnetic Resonance (NMR). NMR measurements were performed on samples in the presence of 10% deuterium oxide (D20). All NMR spectra were acquired on a Bruker Avance spectrometer (Bruker-Biospin, Billerica, MA, USA) with a 5 mm liquid nitrogen cryogenic probe operating at 202 MHz for ^31P, and 186.5 MHz ^119Sn at 25° C. ^119Sn and ^31P NMR spectra were acquired on the samples of SnF2-TSPP with three antioxidants: SAP, BHA, or BHT. FIG. 3-5 show ^119Sn and ^31P NMR spectra of the samples upon aging. In the ^119Sn NMR spectra, the peak positioned at around −630 ppm corresponds to Sn(II) in solution at neutral pH. Once Sn(II) was oxidized to Sn(IV) upon aging, the Sn(II) peak intensity decreased and small Sn(IV) spikes appeared between −680 and −750 ppm. The relative amounts of Sn(II) compared to fresh sample were calculated by integrating the peak corresponding to Sn(II) in ^119Sn NMR spectra. The capacity of three […] to stabilize Sn(II) was compared by measuring the Sn(II) content in the samples. About 80% of Sn(II) was left in the samples in the presence of BHA and SAP after 2 weeks of aging at 60° C. BHT sample had 70% Sn(II) remaining after 2 weeks of aging. […] In the ^31P NMR spectra, the peak positioned at −8 ppm corresponds to TSPP.
as §2
Nuclear Magnetic Resonance (NMR): The stability of Sn (II) was further examined by Nuclear Magnetic Resonance (NMR). NMR measurements were performed as described in Example 1. ^119Sn and ^31P NMR spectra were acquired on the samples of SnF2-TSPP with SAP or sodium ascorbate at various SAP/Sn molar ratios, specifically between 0.05 and 0.3, upon aging at 60° C. FIGS. 9 and 10 show ^119Sn and ^31P NMR spectra of the samples upon aging. In the ^119Sn NMR spectra, the peak positioned at around −630 ppm corresponds to Sn(II) in solution at neutral pH. Once Sn(II) was oxidized to Sn(IV), the Sn(II) peak intensity decreased and small Sn(IV) spikes appeared between −680 and −750 ppm. […] The relative amounts of Sn(II) compared to fresh sample were quantified based on the Sn(II) NMR peak integral (FIG. 11A).

[4] = Head-space O2 consumption (differential pressure) during Sn(II) oxidation; conditions: 29 mM SnF2, 29 mM TSPP, SAP/Sn molar ratios 0.05 and 0.3, 25° C., about 6.5 hours, pH about 6.5
Experimental: Head-space O2 consumption: Stannous stability in presence of small amounts of SAP was further examined by measuring the rate of oxygen consumption during Sn(II) oxidation process. […] SnF2 was added last as a powder, and the flask was immediately scaled.

What does the source list for `COc1ccc(O)c(C(C)(C)C)c1` [BHA, butylated hydroxyanisole]?
change of phosphate vibrational bands / stability of stannous-pyrophosphate complex ([1]; SnF2:TSPP:antioxidant 1:1:0.3, pH 7, aged 2 weeks at 60° C.): improved the stability of stannous-pyrophosphate complex but were less effective than SAP; amount of Sn(II) remaining ([2]; SnF2:TSPP:antioxidant 1:1:0.3, pH 7, after 2 weeks of 60° C. aging, compared to SnF2-TSPP solution alone): positive effect on Sn(II) stability; Sn(II) left relative to fresh sample [3]: About 80%

What does the source list for `O=C1O[C@H]([C@@H](O)CO)C([O-])=C1OP(=O)([O-])[O-].[Na+].[Na+].[Na+]` [SAP, sodium ascorbyl phosphate]?
amount of Sn(II) remaining ([2]; buffer, 336 h, pH 7): highest; head-space differential pressure change (O2 consumption) [4]: no significant pressure drop; Sn(II) left relative to fresh sample [3]: About 80%; Sn(II) content relative to fresh sample ([3]; higher SAP/Sn ratio (0.2, 0.3)): 72%; Sn(II) content relative to fresh sample ([3]; lower mole ratio of SAP/Sn (0.05, 0.1)): about 90%

Which results are given for `Cc1cc(C(C)(C)C)c(O)c(C(C)(C)C)c1` [BHT, butylated hydroxytoluene]?
amount of Sn(II) remaining ([2]; buffer, 336 h, pH 7): positive effect on Sn(II) stability; Sn(II) left relative to fresh sample [3]: 70%

Which “stability of stannous-pyrophosphate complex” value ([1]; antioxidant/Sn molar ratio 0.05 to 0.3, pH 7, fresh, 1 week and 2 weeks at 60° C.) does the source give for `O=C1O[C@H]([C@@H](O)CO)C([O-])=C1O.[Na+]` [sodium ascorbate] here?
Its value is “increased the stability of the stannous-pyrophosphate complex”.

And the “Sn(II) %” value ([2]; higher ascorbate/Sn ratio (0.2, 0.3))?
The value was 70-75%.

What about the “Sn(II) %” value ([2]; lower ascorbate/Sn ratio (0.05, 0.1)) of the same compound?
The value was “about 80%”.
